Results published in ChEMBL document CHEMBL1201862, “PubChem BioAssay data set” (2004).
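Protocol summary: plate cells (96-well), add compound at 5 concentrations, incubate 48 h, interpolate endpoints linearly. At the GI50, growth is halved.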 Active and inactive are the calls of the source. No stated cut-off is given here; in the data, active = GI50 up to about 1.1 µM and inactive = higher.

Assays:
Assay in all cases: NCI tumour cell line growth inhibition, 48 h
[1] = system: 786-0
[2] = system: A498
[3] = system: A549
[4] = system: CAKI-1
[5] = system: CCRF-CEM
[6] = system: COLO 205
[7] = system: DLD-1
[8] = system: DMS-114
[9] = system: DMS-273
[10] = system: EKVX
[11] = system: HCC 2998
[12] = system: HCT-116
[13] = system: HCT-15
[14] = system: HOP-62
[15] = system: HOP-92
[16] = system: HT-29
[17] = system: IGROV-1
[18] = system: K562
[19] = system: KM-20L2
[20] = system: KM12
[21] = system: LOX IMVI
[22] = system: LXFL 529
[23] = system: M14
[24] = system: M19-MEL
[25] = system: MOLT-4
[26] = system: Malme-3M
[27] = system: NCI-H23
[28] = system: NCI-H460
[29] = system: NCI-H522
[30] = system: OVCAR-3
[31] = system: OVCAR-4
[32] = system: OVCAR-5
[33] = system: OVCAR-8
[34] = system: RPMI-8226
[35] = system: RXF 393
[36] = system: RXF 631
[37] = system: SF-268
[38] = system: SF-295
[39] = system: SF-539
[40] = system: SK-MEL-28
[41] = system: SK-MEL-2
[42] = system: SK-MEL-5
[43] = system: SK-OV-3
[44] = system: SN12C
[45] = system: SNB-19
[46] = system: SNB-75
[47] = system: SNB-78
[48] = system: SW-620
[49] = system: TK-10
[50] = system: U-251
[51] = system: UACC-257
[52] = system: UACC-62
[53] = system: UO-31
[54] = system: ACHN
[55] = system: HL-60
[56] = system: HOP-18
[57] = system: NCI-H226
[58] = system: SR
[59] = system: XF498

CN(C)c1ccc(/C=C(\NC(=O)c2ccccc2)c2nc3ccc4c(c3[nH]2)C(=O)c2ccccc2C4=O)cc1
GI50 [1]: 25.4 µM (inactive)
GI50 [2]: 6.61 µM (inactive)
GI50 [3]: 20 µM (inactive)
GI50 [4]: 9.1 µM (inactive)
GI50 [5]: 0.966 µM (active)
GI50 [6]: > 100 µM (inactive)
GI50 [7]: 9.48 µM (inactive)
GI50 [8]: 21.7 µM (inactive)
GI50 [9]: 27.2 µM (inactive)
GI50 [10]: 48.1 µM (inactive)
GI50 [11]: > 100 µM (inactive)
GI50 [12]: 20.9 µM (inactive)
GI50 [13]: 34.1 µM
GI50 [14]: 61.9 µM (inactive)
GI50 [15]: 12.8 µM (inactive)
GI50 [16]: 69.3 µM (inactive)
GI50 [17]: 11.4 µM (inactive)
GI50 [18]: 26.9 µM (inactive)
GI50 [19]: > 100 µM (inactive)
GI50 [20]: 5.19 µM (inactive)
GI50 [21]: 20.2 µM (inactive)
GI50 [22]: 39.6 µM (inactive)
GI50 [23]: 53.8 µM (inactive)
GI50 [24]: > 100 µM (inactive)
GI50 [25]: 2.65 µM (inactive)
GI50 [26]: > 100 µM (inactive)
GI50 [27]: 18.1 µM (inactive)
GI50 [28]: 29.1 µM (inactive)
GI50 [29]: 8.79 µM (inactive)
GI50 [30]: 32.2 µM (inactive)
GI50 [31]: 47.2 µM (inactive)
GI50 [32]: > 100 µM (inactive)
GI50 [33]: 37.4 µM (inactive)
GI50 [34]: 3.18 µM (inactive)
GI50 [35]: 18.9 µM (inactive)
GI50 [36]: 34.7 µM (inactive)
GI50 [37]: 7.14 µM (inactive)
GI50 [38]: 46.6 µM (inactive)
GI50 [39]: 36.5 µM (inactive)
GI50 [40]: 27.5 µM (inactive)
GI50 [41]: 61.8 µM (inactive)
GI50 [42]: 34.3 µM (inactive)
GI50 [43]: 39 µM (inactive)
GI50 [44]: 34 µM (inactive)
GI50 [45]: > 100 µM (inactive)
GI50 [46]: 11 µM (inactive)
GI50 [47]: 75.7 µM (inactive)
GI50 [48]: 33.2 µM (inactive)
GI50 [49]: 17.1 µM (inactive)
GI50 [50]: 31.5 µM (inactive)
GI50 [51]: > 100 µM (inactive)
GI50 [52]: 35.8 µM (inactive)
GI50 [53]: 1.33 µM (inactive)

O=C(/C=C/c1ccccc1Cl)NC1C=Nc2ccc([N+](=O)[O-])cc2NC1 (stereo not drawn)
GI50 [1]: 44.8 µM (inactive)
GI50 [2]: > 100 µM (inactive)
GI50 [3]: > 100 µM (inactive)
GI50 [54]: 39.7 µM (inactive)
GI50 [4]: 66.8 µM (inactive)
GI50 [5]: 12.7 µM (inactive)
GI50 [6]: 39.5 µM (inactive)
GI50 [7]: 48.6 µM (inactive)
GI50 [8]: 48.4 µM (inactive)
GI50 [9]: > 100 µM (inactive)
GI50 [10]: > 100 µM (inactive)
GI50 [11]: > 100 µM (inactive)
GI50 [12]: 59.6 µM (inactive)
GI50 [13]: 35.9 µM
GI50 [55]: 49.2 µM (inactive)
GI50 [56]: > 100 µM (inactive)
GI50 [14]: > 100 µM (inactive)
GI50 [17]: 88.7 µM (inactive)
GI50 [18]: 46.1 µM (inactive)
GI50 [19]: > 100 µM (inactive)
GI50 [20]: 34.4 µM (inactive)
GI50 [21]: 39.4 µM (inactive)
GI50 [22]: 43.2 µM (inactive)
GI50 [23]: > 100 µM (inactive)
GI50 [24]: 53.2 µM (inactive)
GI50 [25]: 13.4 µM (inactive)
GI50 [26]: > 100 µM (inactive)
GI50 [57]: > 100 µM (inactive)
GI50 [28]: 47 µM (inactive)
GI50 [29]: 22.6 µM (inactive)
GI50 [30]: 42.3 µM (inactive)
GI50 [31]: 78.3 µM (inactive)
GI50 [32]: > 100 µM (inactive)
GI50 [33]: 55.8 µM (inactive)
GI50 [34]: 30.8 µM (inactive)
GI50 [35]: 97.7 µM (inactive)
GI50 [37]: > 100 µM (inactive)
GI50 [38]: > 100 µM (inactive)
GI50 [39]: > 100 µM (inactive)
GI50 [40]: > 100 µM (inactive)
GI50 [41]: > 100 µM (inactive)
GI50 [42]: > 100 µM (inactive)
GI50 [43]: > 100 µM (inactive)
GI50 [44]: 98.6 µM (inactive)
GI50 [45]: > 100 µM (inactive)
GI50 [46]: 90.8 µM (inactive)
GI50 [47]: > 100 µM (inactive)
GI50 [58]: 14 µM (inactive)
GI50 [48]: 4.25 µM (inactive)
GI50 [49]: > 100 µM (inactive)
GI50 [50]: 35.3 µM (inactive)
GI50 [51]: 89.3 µM (inactive)
GI50 [52]: > 100 µM (inactive)
GI50 [53]: 24.4 µM (inactive)
GI50 [59]: > 100 µM (inactive)
